Data set [1] concerns the target T1, Leukotriene A-4 hydrolase (Homo sapiens, UniProt P09960).
T1 sequence (P09960 whole entry): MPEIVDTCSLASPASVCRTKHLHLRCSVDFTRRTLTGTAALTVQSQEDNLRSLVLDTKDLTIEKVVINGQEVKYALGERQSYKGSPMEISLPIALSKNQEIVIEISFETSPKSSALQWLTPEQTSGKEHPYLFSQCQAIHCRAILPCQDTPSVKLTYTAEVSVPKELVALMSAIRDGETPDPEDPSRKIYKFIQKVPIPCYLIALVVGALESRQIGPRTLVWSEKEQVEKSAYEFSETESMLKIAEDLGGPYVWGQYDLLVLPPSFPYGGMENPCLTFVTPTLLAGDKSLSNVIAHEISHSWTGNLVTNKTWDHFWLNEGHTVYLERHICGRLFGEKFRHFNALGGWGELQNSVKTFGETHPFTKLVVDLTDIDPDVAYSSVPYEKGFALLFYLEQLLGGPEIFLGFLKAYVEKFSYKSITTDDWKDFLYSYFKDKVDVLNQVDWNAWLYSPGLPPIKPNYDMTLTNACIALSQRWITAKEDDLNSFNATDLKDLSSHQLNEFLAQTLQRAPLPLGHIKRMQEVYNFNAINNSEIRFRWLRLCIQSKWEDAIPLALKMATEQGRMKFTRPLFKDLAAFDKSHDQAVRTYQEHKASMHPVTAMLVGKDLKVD
The experiment in a line: Inhibitory activity against Leukotriene A4 hydrolase from human leukocytes.

For data set [2], the target named is T1, Leukotriene A-4 hydrolase. The experiment in a line: Compound was tested for inhibitory activity against Leukotriene A4 hydrolase from human leukocytes; NI means no inhibition at 1 mM.
A short description of data set [3]: Ratio of catalytic constant to that of Michaelis-Menten constant for LTA4 hydrolase-catalyzed hydrolysis was determined.
Substrate in data set [4]: CC(C)C[C@H](N)C(=O)Nc1ccc([N+](=O)[O-])cc1
Put plainly: (§1) Michaelis-Menten constant of compound for Leukotriene A4 hydrolase catalyzed hydrolysis was determined.

Substrate in data set [5]: CCCCC/C=C\C/C=C\C=C\C=C\[C@@H]1O[C@H]1CCCC(=O)O
The data set is described as §1.

Substrate in data set [6]: C[C@@H](N)C(=O)Nc1ccc([N+](=O)[O-])cc1
The data set is described as §1.

Substrate in data set [7]: NC(N)=NCCC[C@@H](N)C(=O)Nc1ccc([N+](=O)[O-])cc1
Described as §1.

Substrate in data set [8]: NCCCC[C@@H](N)C(=O)Nc1ccc([N+](=O)[O-])cc1
The description is as §1.

Substrate in data set [9]: O=C(Nc1ccc([N+](=O)[O-])cc1)[C@@H]1CCCN1
The data set is described as §1.

Substrate in data set [10]: C[C@@H](N)C(=O)Nc1ccc([N+](=O)[O-])cc1
Put plainly: (§2) Maximum velocity of amino acid amides was tested as substrates for LTA4 hydrolase-catalyzed hydrolysis.

Substrate in data set [11]: NCCCC[C@@H](N)C(=O)Nc1ccc([N+](=O)[O-])cc1
Described as §2.

Substrate in data set [12]: C[C@H](N)C(=O)Nc1ccc([N+](=O)[O-])cc1
The experiment in a line: Maximum velocity of amino acid amides was tested as substrates for Leukotriene A4 hydrolase.

Substrate in data set [13]: CC(C)C[C@H](N)C(=O)Nc1ccc([N+](=O)[O-])cc1
Put plainly: (§3) Maximum velocity of amino acid amides was tested as substrates for Leukotriene A4 hydrolase catalyzed hydrolysis.

Substrate in data set [14]: CCCCC/C=C\C/C=C\C=C\C=C\[C@@H]1O[C@H]1CCCC(=O)O
Described as §3.

Substrate in data set [15]: NC(N)=NCCC[C@@H](N)C(=O)Nc1ccc([N+](=O)[O-])cc1
Described as §3.

Substrate in data set [16]: O=C(Nc1ccc([N+](=O)[O-])cc1)[C@@H]1CCCN1
The description is as §3.

With `C[C@H](CS)C(=O)N1CCC[C@H]1C(=O)O` [CAPTOPRIL], the half-inhibitory concentration (IC50) (usually the concentration needed to halve the response being measured) in data set [1] turned out to be 0.07 µM. That is a double-digit nanomolar value. With `COC(=O)C(S)[C@H](N)Cc1ccccc1` (stereo partly specified), in data set [1], the IC50 was above 250 µM. Still for that read-out and setting: the figure for `N[C@@H](Cc1ccccc1)[C@H](O)C(=O)O` is above 1000 µM; for `COC(=O)C(S)[C@@H](N)Cc1ccccc1` (stereo partly specified) it is around 250 µM; for `CCOC(=O)CC(F)(F)C(=O)/C=C/c1ccccc1` it is above 5000 µM. `COC(=O)[C@H](O)[C@@H](N)Cc1ccccc1` gave a half-inhibitory concentration (IC50) in [1] above 500 µM. Turning to `COC(=O)[C@H](O)[C@H](N)Cc1ccccc1`, the 50% inhibitory concentration (IC50) entry in [2] is reported as “No inhibition”. Molecule `NC(Cc1ccccc1)P(=O)(O)NCC(=O)O` (stereo unspecified) returned an IC50 in data set [1] of around 200 µM.

In data set [1], `N[C@@H](Cc1ccccc1)[C@H](O)C(=O)NCCC(=O)O` yielded an IC50 of around 80 µM. Turning to `CCCCC/C=C\C\C=C/C=C/C=C/[C@@H]1O[C@H]1CCCC(=O)O`, in data set [3], the k cat/Km was determined as 90000 M⁻¹ s⁻¹. On the same count and under the same terms, for `NC(N)=NCCC[C@@H](N)C(=O)Nc1ccc([N+](=O)[O-])cc1` the value was 750 M⁻¹ s⁻¹. The same measure, in the same setting: for `NCCCC[C@@H](N)C(=O)Nc1ccc([N+](=O)[O-])cc1` the value was 350 M⁻¹ s⁻¹. Consider `N[C@H](Cc1ccccc1)[C@H](O)C(=O)O`, for which the concentration for half-maximal inhibition (IC50) entry in data set [2] is reported as “No inhibition”.

In the case of `C[C@@H](N)C(=O)Nc1ccc([N+](=O)[O-])cc1`, in data set [3], the k cat/Km came to 1200 M⁻¹ s⁻¹. Consider `COC(=O)[C@@H](O)[C@H](N)Cc1ccccc1`, for which, in data set [2], the IC50 entry is “No inhibition”. In the case of `CC(C)CC(N)C(=O)Nc1ccc([N+](=O)[O-])cc1` (single isomer, unassigned), the k cat/Km in data set [3] stood at 500 M⁻¹ s⁻¹. As for `N[C@H](Cc1ccccc1)[C@H](O)C(=O)NCCC(=O)O`, the IC50 in data set [1] is around 100 µM. As to `O=C(Nc1ccc([N+](=O)[O-])cc1)[C@@H]1CCCN1`, the k cat/Km in [3] was 1500 M⁻¹ s⁻¹.

B1: Leukotriene A-4 hydrolase (Homo sapiens), P09960 (protein)
chain: T1 sequence (P09960 whole entry)
On to B1, for which the Michaelis constant (Km) (as a rule, the substrate concentration at which the rate is half of its maximum) in data set [4] was 300 µM; in [5] it was 7.6 µM; in [6], 500 µM; in data set [7], 200 µM; in data set [8] it was 100 µM; in data set [9], 100 µM. Moreover, the Vmax (nM min-1 mg-1) worked out at 530 in [10]; 30 in data set [11]; 0 in [12]; 130 in data set [13]; 572 in [14]; 140 in data set [15]. In addition, in data set [16], the Vmax (nM min-1 mg-1) came out at 130.

The record behind these values is ChEMBL document CHEMBL1125953, “Probing the inhibition of leukotriene A4 hydrolase based on its aminopeptidase activity” (Bioorg Med Chem Lett, 1991).
